In one assay the target is IKZF2 (Helios) (Homo sapiens, UniProt Q96SW2+Q9UKS7). The assay is described as follows: Screening of DC50 (nM) and Dmax (%) using WB-IKZF2 cell line (Western blot). Also noted: endogenous in cells. The following applies: 6 hours; for DC50: class symbols, read-out: WB-IKZF2 DC 50. The assay is classed as cell-based. The protocol:
Experimental Example 2. Screening of DC50 (nM) and Dmax (%) Using WB-IKZF2 Cell Line
Candidate degraders were serially diluted and treated in cells cultured in complete medium, followed by incubation for 6 hours at 37° C. in a CO2 incubator. After 6 hours, the cells were harvested and lysed in RIPA buffer (150 mM NaCl, 1% Triton X-100, 1% sodium deoxycholate, 0.1% SDS, 50 mM Tris-HCl pH 7.5, and 2 mM EDTA) containing a protease inhibitor cocktail (Roche). The mixture was vortexed every 10 minutes and incubated on ice for 30 minutes, followed by centrifugation at 13,000 rpm for 10 minutes at 4° C. to isolate proteins. The isolated proteins were quantified using the Bradford assay (Bio-Rad, 5000006). Proteins were separated on 8% SDS-polyacrylamide gel, transferred onto nitrocellulose membranes (Amersham, 10600002), and incubated with primary antibodies at 4° C. for 18 hours. The following primary antibodies were used: anti-Helios rabbit monoclonal antibody (Cell Signaling, 42427, 1:3000) and anti-β-actin mouse monoclonal antibody (Santa Cruz, sc-47778, 1:5000). β-actin was used as a loading control. The next day, the membranes were washed with 1×TBST for 30 minutes and incubated with HRP-conjugated secondary antibodies corresponding to the primary antibodies at room temperature for 1 hour. The following secondary antibodies were used: anti-mouse IgG HRP-linked antibody (Sigma, A9044, 1:5000) and anti-rabbit IgG HRP-linked antibody (Cell Signaling, 7074, 1:5000). After washing with 1×TBST for 30 minutes, protein expression was visualized using the Pierce ECL Western blotting substrate (Thermo Fisher, 32106), and images were captured using a chemiluminescence image analysis system (GE Healthcare, AI680). The obtained images were quantified using the ImageJ software.
On the technique in general: A western blot detects proteins with antibodies after separation by electrophoresis.

In another assay the target is Helios (IKZF2) (Homo sapiens, UniProt Q96SW2+Q9UKS7). The assay is described as follows: Screening of Helios protein degraders using Nano-Glo HiBiT cell line (HiBiT-IKZF2). The following applies: 6 hours, HiBiT-Helios knock-in Jurkat cells; for remaining activity at 1 µM: compound 1 μM, read-out: HiBiT-IKZF2 Residual amount of Helios (%) 1 μM; for remaining activity at 10 µM: compound 10 μM, read-out: HiBiT-IKZF2 Residual amount of Helios (%) 10 μM. Format: cell-based.

Structures are written as SMILES. Where only a bound is given, the exact number is not on record here.

Chain of Helios (IKZF2) (Q9UKS7 whole entry): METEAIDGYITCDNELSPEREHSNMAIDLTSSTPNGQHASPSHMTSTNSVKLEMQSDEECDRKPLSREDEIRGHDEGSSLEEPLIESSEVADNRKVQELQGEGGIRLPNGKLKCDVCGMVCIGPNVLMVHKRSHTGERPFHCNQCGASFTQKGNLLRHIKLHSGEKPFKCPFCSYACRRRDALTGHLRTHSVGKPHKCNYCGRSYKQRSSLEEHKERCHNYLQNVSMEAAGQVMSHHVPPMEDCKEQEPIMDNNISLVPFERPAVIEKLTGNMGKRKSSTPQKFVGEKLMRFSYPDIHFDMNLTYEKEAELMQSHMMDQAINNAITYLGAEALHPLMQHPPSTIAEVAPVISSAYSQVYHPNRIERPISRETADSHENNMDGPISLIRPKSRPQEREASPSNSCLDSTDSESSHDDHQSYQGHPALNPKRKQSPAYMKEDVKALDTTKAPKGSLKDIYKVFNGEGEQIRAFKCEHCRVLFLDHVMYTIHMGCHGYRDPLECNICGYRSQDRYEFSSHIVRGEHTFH
Chain of Helios (IKZF2) (Q96SW2 whole entry): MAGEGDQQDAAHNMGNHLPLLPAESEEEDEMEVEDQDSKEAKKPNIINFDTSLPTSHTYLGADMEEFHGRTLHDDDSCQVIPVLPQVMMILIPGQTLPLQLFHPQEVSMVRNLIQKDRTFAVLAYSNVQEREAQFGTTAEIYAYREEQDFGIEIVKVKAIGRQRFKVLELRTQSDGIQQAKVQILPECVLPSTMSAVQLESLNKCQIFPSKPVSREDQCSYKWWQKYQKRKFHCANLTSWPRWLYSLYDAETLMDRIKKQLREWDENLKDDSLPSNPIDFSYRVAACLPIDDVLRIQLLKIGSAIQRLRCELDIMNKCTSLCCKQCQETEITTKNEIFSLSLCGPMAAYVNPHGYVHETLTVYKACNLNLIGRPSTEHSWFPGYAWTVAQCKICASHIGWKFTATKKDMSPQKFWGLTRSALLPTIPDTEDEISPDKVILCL
Chain of Helios (IKZF2) (Q16531 whole entry partner): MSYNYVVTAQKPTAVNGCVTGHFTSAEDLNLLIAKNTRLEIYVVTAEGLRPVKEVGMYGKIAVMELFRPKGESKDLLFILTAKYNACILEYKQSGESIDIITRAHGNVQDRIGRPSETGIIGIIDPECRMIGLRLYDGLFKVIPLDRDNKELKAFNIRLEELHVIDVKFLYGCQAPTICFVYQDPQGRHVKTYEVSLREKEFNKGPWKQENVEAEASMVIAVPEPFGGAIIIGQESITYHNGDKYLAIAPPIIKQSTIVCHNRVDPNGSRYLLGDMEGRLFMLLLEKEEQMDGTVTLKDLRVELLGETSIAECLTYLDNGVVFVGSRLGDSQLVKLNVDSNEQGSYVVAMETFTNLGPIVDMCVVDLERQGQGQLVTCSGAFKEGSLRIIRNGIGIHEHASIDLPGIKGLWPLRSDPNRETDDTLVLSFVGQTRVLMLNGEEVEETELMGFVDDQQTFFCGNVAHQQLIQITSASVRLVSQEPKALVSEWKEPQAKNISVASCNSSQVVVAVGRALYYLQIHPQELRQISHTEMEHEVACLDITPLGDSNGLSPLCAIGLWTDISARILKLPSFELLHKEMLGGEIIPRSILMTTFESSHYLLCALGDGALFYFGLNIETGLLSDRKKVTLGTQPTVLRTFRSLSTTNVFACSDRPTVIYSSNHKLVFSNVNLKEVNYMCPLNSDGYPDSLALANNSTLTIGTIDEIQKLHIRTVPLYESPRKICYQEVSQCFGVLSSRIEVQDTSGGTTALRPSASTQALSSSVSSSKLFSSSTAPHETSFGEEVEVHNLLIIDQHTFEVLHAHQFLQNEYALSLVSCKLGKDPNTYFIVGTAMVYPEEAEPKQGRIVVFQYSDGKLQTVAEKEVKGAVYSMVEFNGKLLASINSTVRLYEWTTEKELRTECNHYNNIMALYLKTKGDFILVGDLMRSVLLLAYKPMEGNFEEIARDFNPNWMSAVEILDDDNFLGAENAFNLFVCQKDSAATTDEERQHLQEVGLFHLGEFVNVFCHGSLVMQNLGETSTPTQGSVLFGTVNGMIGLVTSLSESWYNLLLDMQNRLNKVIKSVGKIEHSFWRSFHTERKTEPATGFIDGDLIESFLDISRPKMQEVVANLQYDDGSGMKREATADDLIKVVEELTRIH
Chain of IKZF2 (Helios) (Q9UKS7 whole entry): as the sequence (Q9UKS7 whole entry) above
Chain of IKZF2 (Helios) (Q96SW2 whole entry): as the sequence (Q96SW2 whole entry) above
Chain of IKZF2 (Helios) (Q16531 whole entry partner): as the sequence (Q16531 whole entry partner) above

As to `Cc1c(C(=O)N2CCC(c3ccc4c(c3F)CN(C3CCC(=O)NC3=O)C4=O)CC2)[nH]c2cc(C#N)c(F)cc12` (stereo not drawn) [Compound 120, 2-(4-(2-(2,6-dioxopiperidin-3-yl)-4-fluoro-1-oxoindolin-5-yl)piperidine-1-carbonyl)-5-fluoro-3-methyl-1H-indole-6-carbonitrile], the DC50 at IKZF2 (Helios) was in the range of 0.01 to 0.1 µM.
For `Cc1c(C(=O)N2CCC(c3ccc4c(c3F)CN(C3CCC(=O)NC3=O)C4=O)CC2)[nH]c2cc(C#N)ccc12` (stereo not drawn) [Compound 118, 2-(4-(2-(2,6-dioxopiperidin-3-yl)-4-fluoro-1-oxoindolin-5-yl)piperidine-1-carbonyl)-3-methyl-1H-indole-6-carbonitrile], at IKZF2 (Helios), the Dmax amounted to 100% and the DC50 was less than 0.01 µM.
For `Cc1c(C(=O)N2CCC(c3ccc4c(c3F)CN(C3CCC(=O)NC3=O)C4=O)CC2)[nH]c2cc(Cl)c(F)cc12` (stereo not drawn) [Compound 113, 3-(5-(1-(6-chloro-5-fluoro-3-methyl-1H-indole-2-carbonyl)piperidin-4-yl)-4-fluoro-1-oxoinsoindolin-2-yl)piperidine-2,6-dione], the remaining activity at 1 µM at Helios (IKZF2) turned out to be 14.1%. Also, at IKZF2 (Helios), the Dmax worked out at 96% and the DC50 is less than 0.01 µM.
Regarding `Cc1c(C(=O)N2CCC(c3ccc4c(c3)CN(C3CCC(=O)NC3=O)C4=O)CC2)[nH]c2cc([N+](=O)[O-])c(O)cc12` (stereo not drawn) [Compound 86, 3-(5-(1-(5-hydroxy-3-methyl-6-nitro-1H-indole-2-carbonyl)piperidin-4-yl)-1-oxoinsoindolin-2-yl)piperidine-2,6-dione], the remaining activity at 10 µM at Helios (IKZF2) stood at 9.9%. Moreover, the DC50 at IKZF2 (Helios) fell in the range of 0.01 to 0.1 µM.
Turning to `Cc1c(C(=O)N2CCC(c3ccc4c(c3)CN(C3CCC(=O)NC3=O)C4=O)CC2)[nH]c2c(F)c(Cl)ccc12` (stereo not drawn) [Compound 99, 3-(5-(1-(6-chloro-7-fluoro-3-methyl-1H-indole-2-carbonyl)piperidin-4-yl)-1-oxoinsoindolin-2-yl)piperidine-2,6-dione], on Helios (IKZF2), the remaining activity at 1 µM was determined as 10.9% and the remaining activity at 10 µM was 14.6%. Also, at IKZF2 (Helios), the DC50 was 0.01 to 0.1 µM.
`Cc1c(C(=O)N2CCC(c3ccc4c(c3F)CN(C3CCC(=O)NC3=O)C4=O)CC2)[nH]c2c(F)c(Cl)ccc12` (stereo not drawn) [Compound 117, 3-(5-(1-(6-chloro-7-fluoro-3-methyl-1H-indole-2-carbonyl)piperidin-4-yl)-4-fluoro-1-oxoinsoindolin-2-yl)piperidine-2,6-dione]: the DC50 at IKZF2 (Helios) was less than 0.01 µM.
Regarding `CN(C)Cc1c(C(=O)N2CCC(c3ccc4c(c3)CN(C3CCC(=O)NC3=O)C4=O)CC2)[nH]c2cc(Cl)ccc12` (stereo not drawn) [Compound 87, 3-(5-(1-(6-chloro-3-((dimethylamino)methyl)-1H-indole-2-carbonyl)piperidin-4-yl)-1-oxoinsoindolin-2-yl)piperidine-2,6-dione], the remaining activity at 10 µM at Helios (IKZF2) amounted to 8.7%. Besides, at IKZF2 (Helios), the DC50 lay within 0.1 to 1 µM.
For `Cc1c(C(=O)N2CCC(c3ccc4c(c3)C(=O)N(C3CCC(=O)NC3=O)C4=O)CC2)[nH]c2cc([N+](=O)[O-])ccc12` (stereo not drawn) [Compound 95, 2-(2,6-dioxopiperidin-3-yl)-5-(1-(3-methyl-6-nitro-1H-indole-2-carbonyl)piperidin-4-yl)isoindoline-1,3-dione] the same measures were 10.9% and 0.01 to 0.1 µM.
For `Cc1c(C(=O)N2CCC(c3ccc4c(c3)CN(C3CCC(=O)NC3=O)C4=O)CC2)[nH]c2cc(C#N)ccc12` (stereo not drawn) [Compound 52, 2-(4-(2-(2,6-dioxopiperidin-3-yl)-1-oxoindolin-5-yl)piperidine-1-carbonyl)-3-methyl-1H-indole-6-carbonitrile] the same measures were 10.8% and 0.01 to 0.1 µM.
On the same counts, the results for `Cc1c(C(=O)N2CCC(c3ccc4c(c3)CN(C3CCC(=O)NC3=O)C4=O)CC2)[nH]c2cc(C(F)(F)F)ccc12` (stereo not drawn) [Compound 48, 3-(5-(1-(3-methyl-6-(trifluoromethyl)-1H-indole-2-carbonyl)piperidin-4-yl)-1-oxoinsoindolin-2-yl)piperidine-2,6-dione] are 8.21% and 0.01 to 0.1 µM.
Consider `Cc1c(C(=O)N2CCC(c3ccc4c(c3F)C(=O)N(C3CCC(=O)NC3=O)C4=O)CC2)[nH]c2cc(Cl)ccc12` (stereo not drawn) [Compound 121, 5-(1-(6-chloro-3-methyl-1H-indole-2-carbonyl)piperidin-4-yl)-2-(2,6-dioxopiperidin-3-yl)-4-fluoroisoindoline-1,3-dione], for which the DC50 on IKZF2 (Helios) was 0.1 to 1 µM.
As to `Cc1c(C(=O)N2CCC(c3ccc4c(c3F)CN(C3CCC(=O)NC3=O)C4=O)CC2)[nH]c2cc(Cl)ccc12` (stereo not drawn) [Compound 91, 3-(5-(1-(6-chloro-3-methyl-1H-indole-2-carbonyl)piperidin-4-yl)-4-fluoro-1-oxoinsoindolin-2-yl)piperidine-2,6-dione], the remaining activity at 10 µM at Helios (IKZF2) was 6.4%. Also, on IKZF2 (Helios), the Dmax was determined as 100% and the DC50 was less than 0.01 µM.
As to `Cc1c(C(=O)N2CCC(c3ccc4c(c3)CN(C3CCC(=O)NC3=O)C4=O)CC2C)[nH]c2cc(Cl)ccc12` (stereo not drawn) [Compound 60, 3-(5-(1-(6-chloro-3-methyl-1H-indole-2-carbonyl)-2-methylpiperidin-4-yl)-1-oxoinsoindolin-2-yl)piperidine-2,6-dione], the remaining activity at 10 µM at Helios (IKZF2) is 5.4%. For the same compound, the DC50 at IKZF2 (Helios) was in the range of 0.01 to 0.1 µM.
With `Cc1c(C(=O)N2CCC(c3ccc4c(c3F)CN(C3CCC(=O)NC3=O)C4=O)CC2)[nH]c2cc(Cl)c(C#N)cc12` (stereo not drawn) [Compound 119, 6-chloro-2-(4-(2-(2,6-dioxopiperidin-3-yl)-4-fluoro-1-oxoindolin-5-yl)piperidine-1-carbonyl)-3-methyl-1H-indole-5-carbonitrile], at IKZF2 (Helios), the Dmax worked out at 92% and the DC50 was in the range of 0.01 to 0.1 µM.
For `Cc1c(C(=O)N2CCC(c3ccc4c(c3F)CN(C3CCC(=O)NC3=O)C4=O)CC2)[nH]c2cc(N3CCOCC3)ccc12` (stereo not drawn) [Compound 116, 3-(4-fluoro-5-(1-(3-methyl-6-morpholino-1H-indole-2-carbonyl)piperidin-4-yl)-1-oxoinsoindolin-2-yl)piperidine-2,6-dione] the same measures were 96% and 0.01 to 0.1 µM.
`Cc1c(C(=O)N2CCC(c3ccc4c(c3)CN(C3CCC(=O)NC3=O)C4=O)CC2)[nH]c2cc(Cl)cc(Cl)c12` (stereo not drawn) [Compound 107, 3-(5-(1-(4,6-dichloro-3-methyl-1H-indole-2-carbonyl)piperidin-4-yl)-1-oxoinsoindolin-2-yl)piperidine-2,6-dione]: at Helios (IKZF2), the remaining activity at 1 µM was 56.6% and the remaining activity at 10 µM was determined as 51.5%.
On the same counts, the results for `Cc1c(C(=O)N2CCC(c3ccc4c(c3)CN(C3CCC(=O)NC3=O)C4=O)CC2)[nH]c2cc(Cl)c(CN3CCNCC3)cc12` (stereo not drawn) [Compound 109, 3-(5-(1-(6-chloro-3-methyl-5-(piperazin-1-ylmethyl)-1H-indole-2-carbonyl)piperidin-4-yl)-1-oxoinsoindolin-2-yl)piperidine-2,6-dione dichloride] are 38.4% and 24.6%.
On to `O=C1CCC(N2Cc3cc(C4CCN(C(=O)c5[nH]c6ccccc6c5Br)CC4)ccc3C2=O)C(=O)N1` (stereo not drawn) [Compound 36, 3-(5-(1-(3-bromo-1H-indole-2-carbonyl)piperidin-4-yl)-1-oxoinsoindolin-2-yl)piperidine-2,6-dione], for which, at Helios (IKZF2), the remaining activity at 1 µM worked out at 50.9% and the remaining activity at 10 µM was determined as 40.6%.

Source of the values: patent US20260216164A1, “INDOLE COMPOUND DECOMPOSING IKZF2, AND USE THEREOF” (KOREA RESEARCH INSTITUTE OF CHEMICAL TECHNOLOGY, priority 2023, published 2026).
